Laboratory results taken from patent publication US20260327214A1, “1,3,4-OXADIAZOLE DERIVATIVE COMPOUNDS AS HISTONE DEACETYLASE 6 INHIBITOR, AND USES THEREOF” (CHONG KUN DANG PHARMACEUTICAL CORP., priority 2022, published 2026).

How the values were obtained:
human recombinant HDAC1 = molecular target: T1, human recombinant HDAC1 (Homo sapiens, UniProt Q13547); assay: HDAC1 enzyme activity inhibition test (HDAC Fluorometric Drug Discovery Kit); format: biochemical; details: 30° C., 60 minutes, 10 μM substrate
T1 construct: purchased Enzo Life Science BML-SE456
T1 sequence (Q13547 whole entry): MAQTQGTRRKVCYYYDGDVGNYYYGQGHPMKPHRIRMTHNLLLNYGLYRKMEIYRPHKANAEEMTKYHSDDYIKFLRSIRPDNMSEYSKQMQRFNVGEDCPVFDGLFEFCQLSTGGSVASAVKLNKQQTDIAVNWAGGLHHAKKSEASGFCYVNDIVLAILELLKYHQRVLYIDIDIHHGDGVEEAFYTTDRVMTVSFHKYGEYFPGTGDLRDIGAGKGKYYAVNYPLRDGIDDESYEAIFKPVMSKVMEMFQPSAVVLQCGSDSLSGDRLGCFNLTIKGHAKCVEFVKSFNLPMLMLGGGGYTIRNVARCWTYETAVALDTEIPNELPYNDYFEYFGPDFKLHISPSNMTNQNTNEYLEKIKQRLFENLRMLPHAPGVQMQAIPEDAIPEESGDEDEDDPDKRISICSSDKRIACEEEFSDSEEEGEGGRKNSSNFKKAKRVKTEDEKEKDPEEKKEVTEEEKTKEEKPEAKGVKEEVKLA
Method in brief: (§1)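 IC50 derived from fluorescence (Ex 360, Em 460) following 30 min development with Developer II. Each reaction held 0.3 μg human recombinant HDAC1 or HDAC6, 10 μM Fluor de Lys SIRT1 substrate and 5-fold serially diluted compound, incubated 60 min at 30 °C.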

human recombinant HDAC6 = molecular target: T2, human recombinant HDAC6 (Homo sapiens, UniProt Q9UBN7); assay: HDAC6 enzyme activity inhibition test (HDAC Fluorometric Drug Discovery Kit); format: biochemical; details: for HDAC6 selectivity (fold): HDAC6 over HDAC1; for IC50: human recombinant HDAC6, same protocol as HDAC1
T2 construct: purchased Calbiochem 382180
T2 sequence (Q9UBN7 1-1215): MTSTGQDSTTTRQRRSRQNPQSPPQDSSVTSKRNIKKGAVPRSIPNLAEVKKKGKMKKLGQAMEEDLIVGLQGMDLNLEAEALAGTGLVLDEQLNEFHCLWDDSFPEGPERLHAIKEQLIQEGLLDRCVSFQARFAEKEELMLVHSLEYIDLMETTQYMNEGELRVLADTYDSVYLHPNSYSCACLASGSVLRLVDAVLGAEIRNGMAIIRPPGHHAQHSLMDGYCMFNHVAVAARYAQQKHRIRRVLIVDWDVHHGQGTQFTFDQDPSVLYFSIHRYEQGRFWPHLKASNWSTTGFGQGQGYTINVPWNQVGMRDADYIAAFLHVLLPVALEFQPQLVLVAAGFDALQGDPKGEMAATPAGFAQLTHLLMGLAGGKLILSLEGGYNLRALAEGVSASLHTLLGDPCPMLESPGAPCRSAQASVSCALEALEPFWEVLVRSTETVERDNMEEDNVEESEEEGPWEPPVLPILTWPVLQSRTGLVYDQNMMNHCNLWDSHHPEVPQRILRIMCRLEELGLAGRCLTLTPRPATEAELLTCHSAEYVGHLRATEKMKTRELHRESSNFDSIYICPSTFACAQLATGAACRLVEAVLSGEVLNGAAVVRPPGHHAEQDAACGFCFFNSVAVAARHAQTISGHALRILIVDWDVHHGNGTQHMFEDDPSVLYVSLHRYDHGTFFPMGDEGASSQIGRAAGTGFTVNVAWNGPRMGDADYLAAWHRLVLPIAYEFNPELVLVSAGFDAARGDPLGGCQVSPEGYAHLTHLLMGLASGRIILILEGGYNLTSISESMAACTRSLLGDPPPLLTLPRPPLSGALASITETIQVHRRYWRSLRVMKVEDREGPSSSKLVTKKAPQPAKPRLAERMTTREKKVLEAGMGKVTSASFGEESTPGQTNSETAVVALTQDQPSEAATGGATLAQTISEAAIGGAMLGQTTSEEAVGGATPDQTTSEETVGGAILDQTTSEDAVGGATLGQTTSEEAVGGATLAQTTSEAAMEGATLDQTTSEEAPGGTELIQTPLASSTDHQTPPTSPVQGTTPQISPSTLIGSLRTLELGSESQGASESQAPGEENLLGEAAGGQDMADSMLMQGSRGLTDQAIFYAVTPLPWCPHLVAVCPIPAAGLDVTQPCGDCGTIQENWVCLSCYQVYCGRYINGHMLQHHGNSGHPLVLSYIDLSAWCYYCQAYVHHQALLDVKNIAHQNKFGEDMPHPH
Method in brief: as §1

| SMILES | IC50 (human recombinant HDAC1) | HDAC6 selectivity (fold) (human recombinant HDAC6) | IC50 (human recombinant HDAC6) |
| --- | --- | --- | --- |
| O=c1sc(-c2cccc(CN3CCN(C4CS(=O)(=O)C4)CC3)c2)nn1Cc1ccc(-c2nnc(C(F)F)o2)cn1 [Compound 65, 3-[[5-[5-(difluoromethyl)-1,3,4-oxadiazol-2-yl]-2-pyridyl]methyl]-5-[3-[[4-(1,1-dioxothietan-3-yl)piperazin-1-yl]methyl]phenyl]-1,3,4-thiadiazol-2-one] | > 50000 nM | 537 fold | 93.1 nM |
| CN(C)Cc1cccc(-c2nn(Cc3ccc(-c4nnc(C(F)F)o4)cn3)c(=S)o2)c1 [Compound 84, 3-((5-(5-(difluoromethyl)-1,3,4-oxadiazol-2-yl)pyridin-2-yl)methyl)-5-(3-((dimethylamino)methyl)phenyl)-1,3,4-oxadiazol-2(3H)-thione] | > 50000 nM | 497 fold | 101 nM |
| Cc1nc(-c2nn(Cc3ccc(-c4nnc(C(F)F)o4)cn3)c(=S)o2)cs1 [Compound 59, 3-[[5-[5-(difluoromethyl)-1,3,4-oxadiazol-2-yl]-2-pyridyl]methyl]-5-(2-methylthiazol-4-yl)-1,3,4-oxadiazol-2-thione] | > 50000 nM | 669 fold | 74.7 nM |
| CN1CCc2cc(-c3nn(Cc4ncc(-c5nnc(C(F)F)o5)cc4F)c(=S)o3)ccc2C1 [Compound 135, 3-[[5-[5-(difluoromethyl)-1,3,4-oxadiazol-2-yl]-3-fluoro-2-pyridyl]methyl]-5-(2-methyl-3,4-dihydro-1H-isoquinolin-6-yl)-1,3,4-oxadiazol-2-thione] | > 50000 nM | 741 fold | 67.5 nM |
| CC(C)N1CCN(Cc2ccc(-c3nn(Cc4ccc(-c5nnc(C(F)F)o5)cn4)c(=O)s3)cc2)CC1 [Compound 66] | > 50000 nM | 1497 fold | 33.4 nM |
| CN(C)Cc1cccc(-c2nn(Cc3ncc(-c4nnc(C(F)F)o4)cc3F)c(=S)o2)c1 [Compound 117, 3-[[5-[5-(difluoromethyl)-1,3,4-oxadiazol-2-yl]-3-fluoro-2-pyridyl]methyl]-5-[3-[(dimethylamino)methyl]phenyl]-1,3,4-oxadiazol-2-thione] | > 50000 nM | 675 fold | 74.1 nM |
| O=c1oc(-c2cccc(C3CCN(C4COC4)CC3)c2)nn1Cc1ccc(-c2nnc(C(F)F)o2)cn1 [Compound 9, 3-[[5-[5-(difluoromethyl)-1,3,4-oxadiazol-2-yl]-2-pyridyl]methyl]-5-[3-[1-(oxetane-3-yl)-4-piperidyl]phenyl]-1,3,4-oxadiazol-2-one] | > 50000 nM | 585 fold | 85.5 nM |
| CC(C)N1CCC(c2ccc(-c3nn(Cc4ccc(-c5nnc(C(F)F)o5)cn4)c(=O)s3)cc2)CC1 [Compound 55, 3-[[5-[5-(difluoromethyl)-1,3,4-oxadiazol-2-yl]-2-pyridyl]methyl]-5-[4-(1-isopropyl-4-piperidyl)phenyl]-1,3,4-thiadiazol-2-one] | > 50000 nM | 634 fold | 78.9 nM |
| CC(C)N1CCC(c2cccc(-c3nn(Cc4ccc(-c5nnc(C(F)F)o5)cn4)c(=O)s3)c2F)CC1 [Compound 57, 3-[[5-[5-(difluoromethyl)-1,3,4-oxadiazol-2-yl]-2-pyridyl]methyl]-5-[2-fluoro-3-(1-isopropyl-4-piperidyl)phenyl]-1,3,4-thiadiazol-2-one] | > 50000 nM | 954 fold | 52.4 nM |
| O=C1OCC(c2ccc(-c3ccccn3)s2)=NN1Cc1ccc(-c2nnc(C(F)F)o2)cn1 [Compound 74, 3-[[5-[5-(difluoromethyl)-1,3,4-oxadiazol-2-yl]-2-pyridyl]methyl]-5-[5-(2-pyridyl)-2-thienyl]-6H-1,3,4-oxadiazin-2-one] | > 50000 nM | 828 fold | 60.4 nM |
| FC(F)c1nnc(-c2ccc(Cn3nc(-c4ccc(CN5CCC5)s4)oc3=S)nc2)o1 [Compound 123, 5-[5-(azetidine-1-ylmethyl)-2-thienyl]-3-[[5-[5-(difluoromethyl)-1,3,4-oxadiazol-2-yl]-2-pyridyl]methyl]-1,3,4-oxadiazol-2-thione] | > 50000 nM | 1109 fold | 45.1 nM |
| O=c1sc(-c2ccc(CN3CCN(C4CS(=O)(=O)C4)CC3)cc2)nn1Cc1ccc(-c2nnc(C(F)F)o2)cn1 [Compound 68] | > 50000 nM | 473 fold | 106 nM |
| CN1CCN(c2cccc(-c3nn(Cc4ccc(-c5nnc(C(F)F)o5)cn4)c(=O)o3)c2)CC1 [Compound 37, 3-[[5-[5-(difluoromethyl)-1,3,4-oxadiazol-2-yl]-2-pyridyl]methyl]-5-[3-(4-methylpiperazin-1-yl)phenyl]-1,3,4-oxadiazol-2-one] | > 50000 nM | 512 fold | 97.7 nM |
| FC(F)c1nnc(-c2ccc(Cn3nc(-c4ccc(CN5CCN(C6CCCC6)CC5)cc4)oc3=S)nc2)o1 [Compound 79, 5-[4-[(4-cyclopentylpiperazin-1-yl)methyl]phenyl]-3-[[5-[5-(difluoromethyl)-1,3,4-oxadiazol-2-yl]-2-pyridyl]methyl]-1,3,4-oxadiazol-2-thione] | > 50000 nM | 461 fold | 108 nM |
| CC(C)N1CCN(c2nccc(-c3nn(Cc4ccc(-c5nnc(C(F)F)o5)cn4)c(=S)o3)n2)CC1 [Compound 127, 3-[[5-[5-(difluoromethyl)-1,3,4-oxadiazol-2-yl]-2-pyridyl]methyl]-5-[2-(4-isopropylpiperazin-1-yl)pyrimidin-4-yl]-1,3,4-oxadiazol-2-thione] | > 50000 nM | 879 fold | 56.9 nM |
| CC(C)N1CCC(c2ccc(-c3nn(Cc4ccc(-c5nnc(C(F)F)o5)cn4)c(=O)o3)cc2)CC1 [Compound 30, 3-[[5-[5-(difluoromethyl)-1,3,4-oxadiazol-2-yl]-2-pyridyl]methyl]-5-[4-(1-isopropyl-4-piperidyl)phenyl]-1,3,4-oxadiazol-2-one] | > 50000 nM | 518 fold | 96.5 nM |
| FC(F)c1nnc(-c2ccc(Cn3nc(-c4cccc(CN5CC[C@H](F)C5)c4)oc3=S)nc2)o1 [Compound 90, 3-[[5-[5-(difluoromethyl)-1,3,4-oxadiazol-2-yl]-2-pyridyl]methyl]-5-[3-[[(3S)-3-fluoropyrrolidin-1-yl]methyl]phenyl]-1,3,4-oxadiazol-2-thione] | > 50000 nM | 835 fold | 59.9 nM |
| CC(C)N1CCN(c2cccc(-c3nn(Cc4ccc(-c5nnc(C(F)F)o5)cn4)c(=S)o3)c2)CC1 [Compound 76, 3-[[5-[5-(difluoromethyl)-1,3,4-oxadiazol-2-yl]-2-pyridyl]methyl]-5-[3-(4-isopropylpiperazin-1-yl)phenyl]-1,3,4-oxadiazol-2-thione] | > 50000 nM | 945 fold | 52.9 nM |
| O=c1sc(-c2ccccc2)nn1Cc1ccc(-c2nnc(C(F)F)o2)cn1 [Compound 43, 3-[[5-[5-(difluoromethyl)-1,3,4-oxadiazol-2-yl]-2-pyridyl]methyl]-5-phenyl-1,3,4-thiadiazol-2-one] | > 50000 nM | 359 fold | 139 nM |
